Assay results: US7723393B2, “Cycloalkylidene compounds as selective estrogen receptor modulators” (GlaxoSmithKline LLC, priority 2005, dated 2010)

melting point | Compound
131 to 132 °C | CC1(C)CC(=C(c2ccccc2)c2ccc(OCCO)cc2)CC(C)(C)C1 [Example 3, 2-({4-[Phenyl(3,3,5,5-tetramethylcyclohexylidene)methyl]phenyl}oxy)ethanol]
116 to 117 °C | CC1(C)CC(=C(c2ccccc2)c2ccc(OCCOCCO)cc2)CC(C)(C)C1 [Example 4, 2-{[2-({4-[Phenyl(3,3,5,5-tetramethylcyclohexylidene)methyl]phenyl}oxy)ethyl]oxy}ethanol]
100 to 101 °C | CC1(C)CC(=C(c2ccc(F)cc2)c2ccc(OCC#N)cc2)CC(C)(C)C1 [Example 7, ({4-[(4-Fluorophenyl)(3,3,5,5-tetramethylcyclohexylidene)methyl]phenyl}oxy)acetonitrile]
